Data as given in patent publication US10513534B2, “2′-chloro nucleoside analogs for HCV infection” (priority 2012, dated 2019).

Assay: Stability in intestinal microsomes
Type: in vitro ADME
Details: human intestinal microsomes 1.0 mg/mL, 10 μM, NADPH, 60 min
Experimental: Stability of test compounds were determined in human liver and intestinal microsomes in duplicate for each matrix. Pooled liver and intestinal microsomal proteins (1.0 mg/mL), suspended in incubation buffer (100 mM potassium phosphate, pH 7.4, 5 mM MgCl2, and 0.1 mM EDTA), were preincubated for 5 min at 37° C. with 10 μM of a test compound from a 10 mM stock solution in DMSO (final DMSO concentration was 0.1%); the reaction was initiated by the addition of NADPH (3 mM final concentration). At specific times (0 and 60 min), 0.1 mL samples were taken and the reaction terminated by the addition of 4 volumes of stop solution (acetonitrile with 500 ng/mL carbutamide as an internal standard). The samples were vortexed for 30 sec and then centrifuged at 16000×g for 10 min. 100 μL of supernatants were transferred to 96 deep-well plates preloaded with 100 μL distilled water and analyzed after mixing by LC-MS/MS. The MS peak area ratio of the test compound versus the internal standard was calculated and percent unchanged test compound over 60 minutes was calculated using this ratio.

CC(C)OC(=O)[C@H](C)NP(=O)(OC[C@H]1O[C@@H](n2ccc(=O)[nH]c2=O)[C@](C)(Cl)[C@@H]1O)Oc1ccccc1 (single isomer, unassigned) [Compound 40ii Diastereomer 2]
HIM (1 hr) stability (percent remaining): ++++ (75% < ++++)
